Assay results: article PMC7445743 (Journal of Medicinal Chemistry, 2020)
Where a name gives a salt, the structure may show the parent alone.

Key:
DCLK1 = molecular target: T1, DCLK1 (Homo sapiens, UniProt O15075); settings: supplement CSV
T1 sequence (O15075 1-740): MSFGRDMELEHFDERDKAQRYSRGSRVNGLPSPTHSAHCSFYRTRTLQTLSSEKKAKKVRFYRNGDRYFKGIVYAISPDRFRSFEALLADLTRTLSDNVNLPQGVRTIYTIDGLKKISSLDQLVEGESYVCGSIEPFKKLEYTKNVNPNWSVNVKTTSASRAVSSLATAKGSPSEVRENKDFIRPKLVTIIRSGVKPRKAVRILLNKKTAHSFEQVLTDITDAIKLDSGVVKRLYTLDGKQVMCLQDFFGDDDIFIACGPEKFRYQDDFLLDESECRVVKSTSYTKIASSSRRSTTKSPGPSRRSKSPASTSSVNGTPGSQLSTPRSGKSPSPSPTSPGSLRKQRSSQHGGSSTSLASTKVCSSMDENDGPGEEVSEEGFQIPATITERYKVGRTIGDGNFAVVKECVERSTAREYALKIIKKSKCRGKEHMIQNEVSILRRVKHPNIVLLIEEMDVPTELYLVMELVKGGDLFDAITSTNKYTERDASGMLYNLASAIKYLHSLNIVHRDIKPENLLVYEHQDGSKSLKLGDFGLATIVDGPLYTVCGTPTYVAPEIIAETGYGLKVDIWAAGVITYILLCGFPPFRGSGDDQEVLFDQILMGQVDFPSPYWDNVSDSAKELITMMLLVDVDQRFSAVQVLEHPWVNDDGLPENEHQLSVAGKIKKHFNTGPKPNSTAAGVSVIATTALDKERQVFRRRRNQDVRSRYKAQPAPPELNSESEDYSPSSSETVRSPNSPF

PKNB(M.tuberculosis) = molecular target: T2, PKNB(M.tuberculosis) (Mycobacterium tuberculosis, UniProt P9WI81); assay: KINOMEscan; format: binding
T2 construct: purchased DiscoverX (Eurofins) KINOMEscan scanMAX; first lines in-house DSF / ADP-Glo

CaMK4 = molecular target: T3, CaMK4 (Homo sapiens, UniProt Q16566); settings: supplement CSV
T3 sequence (Q16566 1-473): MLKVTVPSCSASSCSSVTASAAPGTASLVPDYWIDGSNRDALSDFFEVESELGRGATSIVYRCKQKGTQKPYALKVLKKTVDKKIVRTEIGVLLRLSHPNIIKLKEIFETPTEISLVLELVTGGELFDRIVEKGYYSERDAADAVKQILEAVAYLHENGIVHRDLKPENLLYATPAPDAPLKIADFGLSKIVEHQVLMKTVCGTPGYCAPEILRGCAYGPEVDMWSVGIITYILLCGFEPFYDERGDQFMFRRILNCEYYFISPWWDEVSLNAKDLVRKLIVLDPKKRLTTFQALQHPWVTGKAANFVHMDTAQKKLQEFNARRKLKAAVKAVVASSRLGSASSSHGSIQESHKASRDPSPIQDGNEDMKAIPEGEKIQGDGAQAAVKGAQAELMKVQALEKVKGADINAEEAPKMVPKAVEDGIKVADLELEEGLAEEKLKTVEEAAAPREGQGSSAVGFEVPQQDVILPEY

DAPK3 = DAPK3 (Homo sapiens, UniProt O43293); settings: supplement CSV
ABL = ABL (Homo sapiens, UniProt P00519); settings: supplement CSV
PAK4 = PAK4 (Homo sapiens, UniProt O96013); settings: supplement CSV
[1] = test system: kinase panel (468 Assays Tested); assay: Pan-kinome selectivity, competitive binding assay (KINOMEscan); settings: for S-Score(35): 1 μM
CAMK2A = CAMK2A (Homo sapiens, UniProt Q9UQM7); settings: supplement CSV
GSK3β = GSK3β (Homo sapiens, UniProt P49841); settings: supplement CSV
CAMK1G = CAMK1G (Homo sapiens, UniProt Q96NX5); settings: supplement CSV
SYK = SYK (Homo sapiens, UniProt P43405); settings: supplement CSV
CK2a = CK2a (Homo sapiens, UniProt P68400); settings: supplement CSV
PIM1 = PIM1 (Homo sapiens, UniProt P11309); settings: supplement CSV
DAPK1 = DAPK1 (Homo sapiens, UniProt P53355); settings: supplement CSV
Sequence of DAPK1 (P53355 whole entry): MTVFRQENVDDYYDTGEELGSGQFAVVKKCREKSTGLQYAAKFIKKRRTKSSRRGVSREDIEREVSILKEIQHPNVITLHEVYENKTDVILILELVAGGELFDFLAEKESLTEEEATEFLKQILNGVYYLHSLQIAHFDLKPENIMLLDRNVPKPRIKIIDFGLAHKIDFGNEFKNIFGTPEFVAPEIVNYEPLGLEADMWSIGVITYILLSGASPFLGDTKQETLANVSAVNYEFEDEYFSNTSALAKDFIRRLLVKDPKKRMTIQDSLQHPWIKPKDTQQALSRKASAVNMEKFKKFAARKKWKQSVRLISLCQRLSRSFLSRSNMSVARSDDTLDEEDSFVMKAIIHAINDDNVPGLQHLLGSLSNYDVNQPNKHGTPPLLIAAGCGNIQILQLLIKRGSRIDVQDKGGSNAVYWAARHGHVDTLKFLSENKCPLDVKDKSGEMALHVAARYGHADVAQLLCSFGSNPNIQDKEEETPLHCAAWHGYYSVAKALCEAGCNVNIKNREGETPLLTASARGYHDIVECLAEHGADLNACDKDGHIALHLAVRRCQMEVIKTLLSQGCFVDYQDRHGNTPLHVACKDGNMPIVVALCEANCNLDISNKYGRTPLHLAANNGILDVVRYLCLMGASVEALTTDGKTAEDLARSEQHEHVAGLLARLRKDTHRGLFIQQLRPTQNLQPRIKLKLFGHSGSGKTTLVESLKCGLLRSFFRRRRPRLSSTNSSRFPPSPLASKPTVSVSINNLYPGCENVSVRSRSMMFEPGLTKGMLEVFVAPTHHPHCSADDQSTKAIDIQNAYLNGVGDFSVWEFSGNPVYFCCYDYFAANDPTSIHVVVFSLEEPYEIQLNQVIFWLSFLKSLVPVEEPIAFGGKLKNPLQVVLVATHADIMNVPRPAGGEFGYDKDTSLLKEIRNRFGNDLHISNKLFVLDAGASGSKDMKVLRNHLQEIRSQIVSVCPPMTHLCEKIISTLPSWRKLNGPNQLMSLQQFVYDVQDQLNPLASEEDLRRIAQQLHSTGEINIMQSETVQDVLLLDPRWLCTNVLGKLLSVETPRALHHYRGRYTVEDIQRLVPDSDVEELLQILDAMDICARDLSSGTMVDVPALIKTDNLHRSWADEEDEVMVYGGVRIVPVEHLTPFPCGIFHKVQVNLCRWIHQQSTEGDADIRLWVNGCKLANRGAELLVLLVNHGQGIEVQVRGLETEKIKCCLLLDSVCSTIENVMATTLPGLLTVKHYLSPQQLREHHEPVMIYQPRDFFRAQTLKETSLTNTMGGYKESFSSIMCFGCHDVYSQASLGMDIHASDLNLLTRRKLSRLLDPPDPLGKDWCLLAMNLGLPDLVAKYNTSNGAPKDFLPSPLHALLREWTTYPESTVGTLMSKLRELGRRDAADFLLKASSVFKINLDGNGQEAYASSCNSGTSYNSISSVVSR

Sequence of PAK4 (O96013 whole entry): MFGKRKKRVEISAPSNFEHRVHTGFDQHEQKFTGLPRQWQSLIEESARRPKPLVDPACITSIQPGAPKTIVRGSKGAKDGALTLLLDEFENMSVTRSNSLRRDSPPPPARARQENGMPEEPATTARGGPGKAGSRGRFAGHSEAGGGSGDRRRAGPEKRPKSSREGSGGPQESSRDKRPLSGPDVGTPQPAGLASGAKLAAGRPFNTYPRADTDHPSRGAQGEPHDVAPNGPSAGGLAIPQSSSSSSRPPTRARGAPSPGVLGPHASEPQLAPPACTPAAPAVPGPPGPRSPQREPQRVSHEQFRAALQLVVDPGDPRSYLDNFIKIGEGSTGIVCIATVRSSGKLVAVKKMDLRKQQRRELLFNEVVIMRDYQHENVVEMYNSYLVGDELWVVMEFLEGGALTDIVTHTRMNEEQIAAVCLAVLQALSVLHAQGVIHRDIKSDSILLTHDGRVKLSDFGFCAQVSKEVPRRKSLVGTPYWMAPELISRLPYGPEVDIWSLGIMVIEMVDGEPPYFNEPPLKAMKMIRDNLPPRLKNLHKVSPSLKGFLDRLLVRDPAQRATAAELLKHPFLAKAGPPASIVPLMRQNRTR
Sequence of CAMK1G (Q96NX5 whole entry): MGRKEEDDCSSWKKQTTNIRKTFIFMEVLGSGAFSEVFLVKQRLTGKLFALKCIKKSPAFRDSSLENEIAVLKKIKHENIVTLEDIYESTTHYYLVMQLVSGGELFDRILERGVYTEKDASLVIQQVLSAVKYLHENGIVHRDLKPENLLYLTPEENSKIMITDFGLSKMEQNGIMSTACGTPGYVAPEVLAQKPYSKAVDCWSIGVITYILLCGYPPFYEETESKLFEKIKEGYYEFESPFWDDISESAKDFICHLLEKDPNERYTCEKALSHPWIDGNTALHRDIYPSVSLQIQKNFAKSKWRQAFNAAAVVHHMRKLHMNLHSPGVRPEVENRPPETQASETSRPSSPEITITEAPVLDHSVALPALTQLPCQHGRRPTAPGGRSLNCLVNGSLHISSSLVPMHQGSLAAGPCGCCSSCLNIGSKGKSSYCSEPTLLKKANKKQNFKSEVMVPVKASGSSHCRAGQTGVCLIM
Sequence of CAMK2A (Q9UQM7 whole entry): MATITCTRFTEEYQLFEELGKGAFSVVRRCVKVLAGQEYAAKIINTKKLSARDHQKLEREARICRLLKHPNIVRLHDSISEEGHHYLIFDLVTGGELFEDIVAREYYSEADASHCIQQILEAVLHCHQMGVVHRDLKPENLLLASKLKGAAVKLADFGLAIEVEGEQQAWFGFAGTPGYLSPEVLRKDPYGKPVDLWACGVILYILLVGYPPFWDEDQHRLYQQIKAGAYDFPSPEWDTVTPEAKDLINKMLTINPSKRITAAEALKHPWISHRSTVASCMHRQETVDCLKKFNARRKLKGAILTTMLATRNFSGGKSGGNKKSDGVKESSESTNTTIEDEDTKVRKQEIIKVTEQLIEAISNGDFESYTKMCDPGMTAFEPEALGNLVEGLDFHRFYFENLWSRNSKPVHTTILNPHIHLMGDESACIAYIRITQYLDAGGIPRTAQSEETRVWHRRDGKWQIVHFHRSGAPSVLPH
Sequence of ABL (P00519 whole entry, species assumed): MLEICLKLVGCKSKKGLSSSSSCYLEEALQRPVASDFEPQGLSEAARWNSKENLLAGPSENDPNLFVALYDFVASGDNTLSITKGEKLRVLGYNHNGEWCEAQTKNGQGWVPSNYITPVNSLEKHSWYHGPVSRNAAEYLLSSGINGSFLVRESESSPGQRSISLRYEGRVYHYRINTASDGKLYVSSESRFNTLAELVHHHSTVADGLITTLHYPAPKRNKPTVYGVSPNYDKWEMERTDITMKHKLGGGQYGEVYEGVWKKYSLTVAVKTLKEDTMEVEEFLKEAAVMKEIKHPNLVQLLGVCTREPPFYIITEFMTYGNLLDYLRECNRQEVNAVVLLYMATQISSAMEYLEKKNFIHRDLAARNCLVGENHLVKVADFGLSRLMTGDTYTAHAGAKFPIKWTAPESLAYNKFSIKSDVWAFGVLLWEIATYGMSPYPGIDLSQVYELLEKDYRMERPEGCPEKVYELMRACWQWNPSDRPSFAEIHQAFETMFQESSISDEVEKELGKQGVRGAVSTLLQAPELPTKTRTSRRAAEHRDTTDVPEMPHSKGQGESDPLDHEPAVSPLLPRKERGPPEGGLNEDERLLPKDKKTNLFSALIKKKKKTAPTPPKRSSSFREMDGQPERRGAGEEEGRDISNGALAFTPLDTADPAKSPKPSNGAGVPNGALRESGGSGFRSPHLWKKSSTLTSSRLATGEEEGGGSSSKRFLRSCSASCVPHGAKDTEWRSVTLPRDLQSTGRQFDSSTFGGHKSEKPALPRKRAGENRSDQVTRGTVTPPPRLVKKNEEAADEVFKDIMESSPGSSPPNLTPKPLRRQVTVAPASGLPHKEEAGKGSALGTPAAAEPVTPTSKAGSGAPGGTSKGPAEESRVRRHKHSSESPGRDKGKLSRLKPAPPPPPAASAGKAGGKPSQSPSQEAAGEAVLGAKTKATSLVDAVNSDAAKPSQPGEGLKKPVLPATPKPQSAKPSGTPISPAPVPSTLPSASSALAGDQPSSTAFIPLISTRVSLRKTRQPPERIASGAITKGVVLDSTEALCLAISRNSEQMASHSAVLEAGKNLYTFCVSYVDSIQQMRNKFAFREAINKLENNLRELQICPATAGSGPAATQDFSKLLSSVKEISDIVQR
Sequence of CK2a (P68400 whole entry): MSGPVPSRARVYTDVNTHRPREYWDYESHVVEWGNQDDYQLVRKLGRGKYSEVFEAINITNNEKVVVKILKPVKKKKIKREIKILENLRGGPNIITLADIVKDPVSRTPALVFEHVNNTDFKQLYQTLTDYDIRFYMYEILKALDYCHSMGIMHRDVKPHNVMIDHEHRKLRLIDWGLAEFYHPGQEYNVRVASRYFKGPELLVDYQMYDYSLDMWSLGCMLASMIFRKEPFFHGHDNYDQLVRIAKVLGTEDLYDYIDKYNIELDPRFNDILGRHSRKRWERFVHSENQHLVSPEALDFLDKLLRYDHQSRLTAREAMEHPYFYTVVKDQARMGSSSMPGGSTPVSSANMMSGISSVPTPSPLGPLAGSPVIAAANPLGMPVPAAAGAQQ
Sequence of PIM1 (P11309 whole entry): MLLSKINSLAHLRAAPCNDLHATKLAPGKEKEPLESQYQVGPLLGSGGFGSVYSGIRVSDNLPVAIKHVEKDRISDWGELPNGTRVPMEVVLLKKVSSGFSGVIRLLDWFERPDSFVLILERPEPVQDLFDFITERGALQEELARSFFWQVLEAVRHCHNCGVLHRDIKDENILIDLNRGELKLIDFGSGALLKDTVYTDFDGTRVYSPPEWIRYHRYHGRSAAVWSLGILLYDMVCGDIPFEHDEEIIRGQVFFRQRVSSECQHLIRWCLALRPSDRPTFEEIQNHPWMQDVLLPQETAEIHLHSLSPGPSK

| SMILES | DCAMKL1 Tm (DCLK1) | remaining binding at 1 µM (PKNB(M.tuberculosis)) [%] | CAMK4 Tm (CaMK4) | DAPK3 Tm (DAPK3) | ABL1 Tm (ABL) | PAK4 Tm (PAK4) | S-Score(35) [1] | CAMK2A Tm (CAMK2A) | GSK3B Tm (GSK3β) | CAMK1G Tm (CAMK1G) | SYK Tm (SYK) | CK2alpha Tm (CK2a) | PIM1 Tm (PIM1) | DAPK1 Tm (DAPK1) | wild-type kinases inhibited by >90% ([1]; competitive binding assay at 1 μM) |
| --- | --- | --- | --- | --- | --- | --- | --- | --- | --- | --- | --- | --- | --- | --- | --- |
| CC(C)(C)c1cc(Nc2nc(N3CCC[C@H](N)C3)ncc2C(N)=O)cc(C(C)(C)C)c1 [Compound 14, (S)-2-(3-Aminopiperidin-1-yl)-4-((3,5-di-tert-butylphenyl)amino)pyrimidine-5-carboxamide] | 1.34 0C | 97 | 6.39 0C | 4.82 0C | -0.28 0C | -0.72 0C | 0.01 | 0.69 0C | -0.63 0C | 10.22 0C |  |  |  |  |  |
| NCCNc1ncc(C(N)=O)c(Nc2cccc(C(F)(F)F)c2)n1 [Compound 1, 2-((2-Aminoethyl)amino)-4-((3-(trifluoromethyl)phenyl)amino)pyrimidine-5-carboxamide hydrochloride, reference compound] | 0.11 0C |  | 1.34 0C | 4.05 0C | 1.33 0C | 4.62 0C |  | 0.21 0C | 3.4 0C | 4.11 0C | 7.51 0C | 0.87 0C | 1 0C | 2.33 0C |  |
| CN(CCN)c1ncc(C(N)=O)c(Nc2cccc(C(F)(F)F)c2)n1 [Compound 3, 2-((2-Aminoethyl)(methyl)amino)-4-((3-(trifluoromethyl)phenyl)amino)pyrimidine-5-carboxamide Hydrochloride] |  |  |  |  | 1.75 0C | 2.1 0C |  | 0.49 0C |  | 4.91 0C |  | 1.26 0C | 4.42 0C | 3.2 0C |  |
| NC(=O)c1cnc(N2CCC[C@H](N)C2)nc1Nc1cccc(C(F)(F)F)c1 [Compound 8, (S)-2-(3-Aminopiperidin-1-yl)-4-((3-(trifluoromethyl)phenyl)amino)pyrimidine-5-carboxamide Hydrochloride] |  | 84 |  |  |  | 4.73 0C | 0.12 | 1.08 0C |  | 9.55 0C |  |  |  |  | 11 |
